The source of these data is patent US7368582B2, “Amidomethyl-substituted 2-(4-sulfonylamino)-3-hydroxy-3,4-dihydro-2H-chromen-6-yl compounds, a process and intermediates for their production, and pharmaceutical compositions containing them” (Solvay Pharmaceuticals GmbH, priority 2003, dated 2008).

The subject of test [1] is left atrium of rats' hearts. The experiment in a line: Functional refractory period prolongation on isolated left atria of rats' hearts in vitro. Also on record: species or system rat (Sprague-Dawley). The settings on record: 10 μM. The method, then: 3. Investigation of the Functional Effectiveness of the Substances on the Atrium of Rats' Hearts in Vitro
In this test model it is determined to what extent the Kv 1.5-blocking substances of Formula I result in a prolongation of the functional refractory period in the left atrium of rats. The refractory period is the minimum possible elapsed time between the basic stimulus and additional stimulus in which a renewed contraction can be triggered. The extent of the prolongation of the functional refractory period is a measurement of the antiarrhythmic effectiveness of the substances according to the invention. The functional refractory period is determined by testing on the electrically stimulated preparation at what elapsed time from the preceding contraction a renewed contraction can be triggered by additional electrical stimuli.
The hearts were removed from freshly sacrificed rats (Sprague-Dawley, Charles-River, Germany). The left atria were isolated and fastened to force transducers in a temperature-controlled (30° C.), gasified (O2 95%, CO2 5%) organ bath which was filled with modified Tyrode solution (all values in mM: NaCl 137; KCl 2.7; CaCl2 1.8; MgCl2 0.8; NaHCO3 11.9; NaH2PO4 0.6; glucose 5). In order to trigger regular contractions, the preparations were electrically stimulated (rectangular pulses, pulse magnitude 3.5× threshold stimulus, pulse width 1.5 ms, frequency 1 Hz). Initially, the initial value of the functional refractory period was determined by applying extra pulses in addition to the basic stimulus, the elapsed time from the preceding basic stimulus being shortened until no further additional contraction could be triggered. Then the cumulative addition of increasing concentrations (0.1-10 μM) of the substances of Formula I took place at intervals of 20 min. each, the refractory period being determined again in each case 18 min. after the addition had taken place. Before the measurement, stock solutions of the test substances (3.2 and 0.32 mM in 100% DMSO) were prepared. In order to achieve the desired final concentrations of the substances (0.1-10 μM) in the organ bath (volume 100 ml), corresponding volumes of these stock solutions were then poured into the organ bath.
In each case the prolongation of the functional refractory period (FRP) in the left atrium of the rats' hearts in milliseconds observed after the addition of 10 μM of the respective substance of Formula I to the atrial preparations was given as characteristic variable.

In test [2] the test system is hearts of anaesthetised cats. The experiment in a line: Atrial and ventricular fibrillation threshold in anaesthetised cats in vivo. Also noted: species or system cat. The conditions noted are these: anaesthetized cats, dose 30 μmol/kg i.v.; for AFT (increase in the atrial fibrillation threshold) / VFT (increase in the ventricular fibrillation threshold): percent of value before administration. An excerpt:
5. Investigation of the Functional Effectiveness of the Substances on the Hearts of Anaesthetised Cats in Vivo
In the test model shown below, it was shown that the substances according to the invention at most have a marked atrial-selective effect on the heart. After administration of the substances according to the invention, a significant increase in the atrial fibrillation threshold—i.e. the current intensity at which atrial fibrillation occurs—was observed. At the same time, on the other hand, the ventricular fibrillation threshold is influenced only minimally.
Living cats were anaesthetised with chloralose/urethane (50/300 mg/kg i.v.) and were ventilated with ambient air. Then, following thoracotomy, stimulating electrodes were attached to the right atrium and the ventricle. The atrial and ventricular fibrillation threshold was determined in known manner by administration of rectangular pulses of increasing current intensity until atrial or ventricular fibrillation occurred (for performance see in detail: Br. J. Pharmac. 17 (1961) 167; Hdb. exp. Pharmacol. XVI/3 (1975) 131; Pharmacol. Res. 25 Suppl. 2 (1992) 156). The test substances of Formula I were dissolved in propylene glycol (80%) and administered intravenously in increasing doses (5-30 μmol/kg). Atrial and ventricular fibrillation thresholds were then determined at 5-minute intervals in known manner after the addition of the respective dose. The increase in the respective fibrillation threshold due to the substances investigated was expressed in percent of the value before administration of substance, i.e. a doubling of the fibrillation threshold corresponds to an increase of 100%.

The target in another test is T1, Kv 1.3-potassium channel (Homo sapiens, UniProt P22001).
T1 construct: expressed in transfected cells; host or cells: CHO cells, stably transfected with the Kv 1.3 plasmid using DMRIE-C
T1 sequence (P22001 whole entry): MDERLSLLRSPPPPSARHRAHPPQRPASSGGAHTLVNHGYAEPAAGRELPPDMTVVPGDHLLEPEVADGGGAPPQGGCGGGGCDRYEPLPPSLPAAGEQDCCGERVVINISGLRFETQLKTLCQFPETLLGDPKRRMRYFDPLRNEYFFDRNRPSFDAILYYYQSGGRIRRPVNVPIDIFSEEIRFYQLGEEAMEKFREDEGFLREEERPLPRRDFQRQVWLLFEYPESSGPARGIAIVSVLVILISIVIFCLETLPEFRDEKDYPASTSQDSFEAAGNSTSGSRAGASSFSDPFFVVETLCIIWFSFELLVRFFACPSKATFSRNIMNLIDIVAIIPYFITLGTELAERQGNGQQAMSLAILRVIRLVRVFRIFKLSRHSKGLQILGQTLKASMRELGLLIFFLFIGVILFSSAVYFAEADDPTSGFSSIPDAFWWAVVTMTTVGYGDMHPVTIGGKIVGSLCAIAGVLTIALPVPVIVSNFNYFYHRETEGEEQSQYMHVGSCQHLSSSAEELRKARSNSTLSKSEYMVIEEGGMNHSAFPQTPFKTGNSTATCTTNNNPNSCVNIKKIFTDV
The experiment in a line: In-vitro Kv 1.3-potassium channel-blocking effect (membrane potential-sensitive fluorescent dye in transfected CHO cells). Format: cell-based. The conditions noted are these: 10 μM test substance; CHO cells transfected with Kv 1.3; relative to reference margatoxin. An excerpt:
2. In-Vitro Investigation of the Kv 1.3-Potassium Channel-Blocking Effect of the Substances
In this test model, known oocytes of the Chinese hamster (═CHO) are used which are stably transfected with the Kv 1.3-potassium channel. The blockade of the cell-inherent Kv 1.3-potassium channel activity in the transfected cells is accompanied by a positive shift in the membrane potential from approx. −40 mV to −30 mV, whereas in the wild-type CHO cells investigated in parallel no significant shift in the membrane potential is triggered. A change in the membrane potential is thus connected to the reduction in the Kv 1.3-potassium channel activity. By blocking the Kv 1.3-potassium channels e.g. with substances of Formula I and the resulting change in the membrane potential, an accumulation of a membrane potential-sensitive fluorescent dye in intracellular compartments of the oocytes and ultimately increasing fluorescence occurs. The change in the membrane potential of the oocytes is therefore measured indirectly via the increase in fluorescence of the membrane potential-senstive dyes.
The cells were transfected with the Kv 1.3 plasmid in known manner with a commercially obtainable transfection reagent (DMRIE-C from Gibco BRL, Germany). The successful transfection was verified by immunofluorescence and by “patch-clamp” investigations of the potassium ion current. The fluorescence measurements were performed on a Tecan Safire fluorescence reader from Tecan, Germany. In each case, the increase in the fluorescent intensity caused by the blockade of the Kv 1.3-potassium channels in the oocytes with substances of Formula I in a concentration of 10 μM was determined as characteristic variable. The increase in the fluorescent intensity was given in each case in percent (%) compared with an increase in the fluorescent intensity caused by the reference substance margatoxin. Margatoxin is known as a selective Kv 1.3-potassium channel blocker (see e.g. M. Garcia-Calvo et al., J. Biol. Chem. 268 (1993) 18866-18874).

As for `CCc1ccc(S(=O)(=O)NC2c3cc(CC(=O)N4CCN(c5ccccc5)CC4)ccc3OC(C)(C)C2O)cc1` (stereo not drawn) [Example 16], the FRP prolongation in test [1] was 20 ms.

For `CCc1ccc(S(=O)(=O)N(CC(C)(C)C)C2c3cc(CC(=O)NCCc4ccccc4)ccc3OC(C)(C)C2O)cc1` (stereo not drawn) [Example 10], the FRP prolongation in test [1] was 20 ms. Further, in test [2], the “Selectivity factor (AFT:VFT)” value is reported as 13, the “AFT (increase in the atrial fibrillation threshold)” value was found to be 241% and the “VFT (increase in the ventricular fibrillation threshold)” value stood at 19%. Further, the “Increase in the fluorescent intensity (% margatoxin)” value (“Increase … (% margatoxin)” for short) at Kv 1.3-potassium channel was 82 % margatoxin.

As for `CCc1ccc(S(=O)(=O)N[C@@H]2c3cc(CC(=O)N[C@H]4CCCc5ccccc54)ccc3OC(C)(C)[C@H]2O)cc1` [Example 9], the FRP prolongation in test [1] was found to be 30 ms. Moreover, in test [2], the “Selectivity factor (AFT:VFT)” value is given as 7, the “AFT (increase in the atrial fibrillation threshold)” value was determined as 213% and the “VFT (increase in the ventricular fibrillation threshold)” value stood at 29%. Moreover, the “Increase … (% margatoxin)” value at Kv 1.3-potassium channel was determined as 107 % margatoxin.

For the compound `CCc1ccc(S(=O)(=O)N(CC(C)(C)C)[C@@H]2c3cc(CC(=O)NCc4ccccc4)ccc3OC(C)(C)[C@H]2O)cc1` [Example 7], the FRP prolongation in test [1] worked out at 24 ms.

`CC1(C)Oc2ccc(CC(=O)NC3CCCc4ccccc43)cc2C(NS(=O)(=O)c2cccc(F)c2)C1O` (mixture of isomers) [Example 13] displayed an FRP prolongation in test [1] of 28 ms. For the same compound, on Kv 1.3-potassium channel, the “Increase … (% margatoxin)” value was found to be 53 % margatoxin.

With `CCc1ccc(S(=O)(=O)N[C@@H]2c3cc(CC(=O)N[C@@H]4CCCc5ccccc54)ccc3OC(C)(C)[C@H]2O)cc1` [Example 2, 2-((3S,4R)-4-{[(4-ethylphenyl)sulfonyl]amino}-3-hydroxy-2,2-dimethyl-3,4-dihydro-2H-chromen-6-yl)-N-[(1R)-1,2,3,4-tetrahydronaphth-1-yl]acetamide], the FRP prolongation in test [1] is listed as 20 ms. In addition, in test [2], the “Selectivity factor (AFT:VFT)” value is on record as 17, the “AFT (increase in the atrial fibrillation threshold)” value is 261% and the “VFT (increase in the ventricular fibrillation threshold)” value is 15%. On Kv 1.3-potassium channel, the “Increase … (% margatoxin)” value came to 72 % margatoxin.

On to `CCc1ccc(S(=O)(=O)N(CC(C)(C)C)[C@H]2c3cc(CC(=O)NCc4ccccc4)ccc3OC(C)(C)[C@@H]2O)cc1` [Example 8], for which, in test [1], the FRP prolongation worked out at 17 ms.

In test [1], `CCc1ccc(S(=O)(=O)N(CC(C)(C)C)C2c3cc(CC(=O)NCc4ccccc4)ccc3OC(C)(C)C2O)cc1` (stereo not drawn) [Example 4, N-benzyl-2-{4-[[(4-ethylphenyl)sulfonyl](neopentyl)amino]-3-hydroxy-2,2-dimethyl-3,4-dihydro-2H-chromen-6-yl}acetamide] came in with an FRP prolongation of 17 ms. For the same compound, in test [2], the “Selectivity factor (AFT:VFT)” value amounted to 12, the “AFT (increase in the atrial fibrillation threshold)” value was 226% and the “VFT (increase in the ventricular fibrillation threshold)” value is 19%.
